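Protocol summary: plate cells (96-well), add compound at 5 concentrations, incubate 48 h, interpolate endpoints linearly. GI50 marks 50% less growth. TGI: concentration producing complete growth inhibition.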
What was measured:
Experiment in all cases: NCI tumour cell line growth inhibition, 48 h
[1] = test system: COLO 205 colon
[2] = test system: BT-549 breast
[3] = test system: HS 578T breast
[4] = test system: HCT-15 colon
[5] = test system: HCT-116 colon
[6] = test system: UO-31 renal
[7] = test system: UACC-257 melanoma
[8] = test system: HL-60(TB) leukemia
[9] = test system: MOLT-4 leukemia
[10] = test system: PC-3 prostate
[11] = test system: MDA-MB-435
[12] = test system: ACHN renal
[13] = test system: HT29 colon
[14] = test system: OVCAR-3 ovarian
[15] = test system: CAKI-1 renal
[16] = test system: SNB-75 CNS
[17] = test system: M14 melanoma
[18] = test system: SNB-19 CNS
[19] = test system: A498 renal
[20] = test system: UACC-62 melanoma
[21] = test system: SK-MEL-28 melanoma
[22] = test system: DU-145 prostate
[23] = test system: IGROV1 ovarian
[24] = test system: SK-MEL-5 melanoma
[25] = test system: SF-268 CNS
[26] = test system: A549 NSCLC
[27] = test system: 786-0 renal
[28] = test system: K-562 leukemia
[29] = test system: MDA-MB-231 breast
[30] = test system: SF-295 CNS
[31] = test system: RXF 393 renal
[32] = test system: NCI-H226 lung
[33] = test system: RPMI-8226 leukemia
[34] = test system: MCF7 breast
[35] = test system: SR leukemia
[36] = test system: OVCAR-8 ovarian
[37] = test system: U251 CNS
[38] = test system: EKVX NSCLC
[39] = test system: SF-539 CNS
[40] = test system: OVCAR-5 ovarian
[41] = test system: NCI-H460 lung
[42] = test system: SW-620 colon
[43] = test system: TK-10 renal
[44] = test system: NCI-H522 lung
[45] = test system: OVCAR-4 ovarian
[46] = test system: SN12C renal
[47] = test system: LOX IMVI melanoma
[48] = test system: KM12 colon
[49] = test system: SK-MEL-2 melanoma

Compound `CCCN1C(=O)/C(=C/c2cccc(O)c2)SC1=Nc1ccc(OC)cc1` has a GI50 [1] of 11.1 µM, a TGI [1] of 25.2 µM and a GI50 [2] of 8.08 µM. It also gave a TGI [2] of 15.6 µM, a GI50 [3] of 16.5 µM and a TGI [3] of 34.1 µM. The GI50 [4] was 7.76 µM, the TGI [4] was 16.2 µM and the GI50 [5] was 7.35 µM. For the same compound, the TGI [5] was 13.9 µM, the GI50 [6] was 13.5 µM and the TGI [6] was greater than 50 µM. It also gave a GI50 [7] of 9.48 µM, a TGI [7] of 17.1 µM and a GI50 [8] of 4.09 µM. For the same compound, the TGI [8] was greater than 50 µM, the GI50 [9] was 4.7 µM and the TGI [9] was greater than 50 µM. The GI50 [10] was 6.59 µM, the TGI [10] was 13.2 µM and the GI50 [11] was 10.8 µM. For the same compound, the TGI [11] was 22 µM, the GI50 [12] was 8.08 µM and the TGI [12] was 15.3 µM. For the same compound, the GI50 [13] was 8.98 µM, the TGI [13] was 19.7 µM and the GI50 [14] was 10.2 µM. For the same compound, the TGI [14] was 21.1 µM, the GI50 [15] was 9.86 µM and the TGI [15] was 20.5 µM. The GI50 [16] was 11.7 µM, the TGI [16] was 22.8 µM and the GI50 [17] was 12.9 µM. For the same compound, the TGI [17] was 21.3 µM, the GI50 [18] was 9.5 µM and the TGI [18] was 19.3 µM. The GI50 [19] was 8.81 µM, the TGI [19] was 16.5 µM and the GI50 [20] was 10.3 µM. It also gave a TGI [20] of 18.1 µM, a GI50 [21] of 10.2 µM and a TGI [21] of 20.2 µM. The GI50 [22] was 7.93 µM, the TGI [22] was 15.3 µM and the GI50 [23] was 29.5 µM. For the same compound, the TGI [23] was greater than 50 µM, the GI50 [24] was 7.28 µM and the TGI [24] was 15.1 µM. The GI50 [25] was 9.65 µM, the TGI [25] was 20.8 µM and the GI50 [26] was 9.11 µM. For the same compound, the TGI [26] was 18.3 µM, the GI50 [27] was 8.63 µM and the TGI [27] was 16.4 µM. For the same compound, the GI50 [28] was 2800 nM, the TGI [28] was 22.3 µM and the GI50 [29] was 7.86 µM. It also gave a TGI [29] of 16 µM, a GI50 [30] of 11.5 µM and a TGI [30] of 23.3 µM. For the same compound, the GI50 [31] was 9.3 µM, the TGI [31] was 19.3 µM and the GI50 [32] was 13.3 µM. It also gave a TGI [32] of 27.6 µM, a GI50 [33] of 5.61 µM and a TGI [33] of 15.7 µM. It also gave a GI50 [34] of 10.9 µM, a TGI [34] of 29.2 µM and a GI50 [35] of 6.04 µM. The TGI [35] was greater than 50 µM, the GI50 [36] was 10.7 µM and the TGI [36] was 22.2 µM. For the same compound, the GI50 [37] was 7.87 µM, the TGI [37] was 14.6 µM and the GI50 [38] was 9.5 µM. The TGI [38] was 17.2 µM, the GI50 [39] was 8.25 µM and the TGI [39] was 15.7 µM. For the same compound, the GI50 [40] was 7.94 µM, the TGI [40] was 14.8 µM and the GI50 [41] was 13.5 µM. The TGI [41] was greater than 50 µM, the GI50 [42] was 9.78 µM and the TGI [42] was 17.3 µM. The GI50 [43] was 9.62 µM, the TGI [43] was 19.5 µM and the GI50 [44] was 23.4 µM. It also gave a TGI [44] greater than 50 µM, a GI50 [45] of 8.18 µM and a TGI [45] of 18.8 µM. It also gave a GI50 [46] of 9.17 µM, a TGI [46] of 17.5 µM and a GI50 [47] of 7.9 µM. The TGI [47] was 15.2 µM, the GI50 [48] was 6.77 µM and the TGI [48] was 16.5 µM. For the same compound, the GI50 [49] was 31.9 µM and the TGI [49] was greater than 50 µM.
